From paper PMC11676896, “Protective Action of Cannabidiol on Tiamulin Toxicity in Humans—In Vitro Study” (International Journal of Molecular Sciences, 2024)
Where a name gives a salt, the structure may show the parent alone.

How the values were obtained:
HEK 293 cells [1] = experiment: NRU assay (lysosomal activity); format: cell-based, human
Protocol: (§1) The cytotoxic potential of the veterinary drug and its mixtures with cannabidiol at two non-toxic concentrations: 1.56 and 3.15 µg/mL, on the human SH-SY5Y, HepG2 and HEK 293 cell lines was assessed by decreased viability of the cells within five biochemical endpoints: mitochondrial activity and lysosomal activity (MTT assays, reducing the tetrazolium dye MTT 3-(4,5-dimethylthiazol-2-yl)-2,5-diphenyltetrazolium bromide and neutral red uptake (NRU) assays), total protein content (TPC assay), cellular membrane integrity (leakage lactate dehydrogenase (LDH) assay) and DNA synthesis (the bromodeoxyuridine/5-bromo-2′-deoxyuridine incorporation into the DNA cells (BrdU) assay) after 72 h exposition. Data obtained from the measurement of the optical density in these assays were transformed to percentages in relation to the negative control group (0.1% DMSO in medium), considered to be 100% for the MTT, NRU, TPC and BrdU assays and 0% for the LDH assay. 1% Trition-X 100 solution in medium was used as the positive controls, (Figure 3).
(§2) The human neuroblastoma (SH-SY5H), hepatoma (HepG2) and kidney cells (HEK 293) cells were purchased from the American Type Culture Collection: ATCCCRL-2266,ATCC HB-8065 and ATCC CRL-1573, respectively. These cells were cultured in Minimum Essential Medium Eagle (MEME) (ATCC). The media were supplemented with 10% FBS, 1% L-glutamine (and 1% antibiotic solution (P4333 Sigma). The cells were maintained in 75 cm^2 cell culture flasks (NUNC) in a humidified incubator at 37 °C in an atmosphere of 5% CO2. The medium was refreshed every two or three days, and the cells were subcultured by 0.25% trypsin–0.02% EDTA after reaching 70–80% confluence. Single cell suspensions were prepared and adjusted to a density of 2 × 10^5 cell/mL^−1 (SH-SY5H), 1 × 10^5 cell/mL^−1 (HepG2) and 1 × 10^5 cell/mL^−1 (HEK-293). The cell suspension was transferred to 96-well plates (100 µL/well) or Lab-Tek chamber slides (8 wells) (Nunc) for staining and incubated for 24 h before the exposure to the studied compounds. Stock solutions of tiamulin fumarate and cannabidiol were prepared in DMSO and diluted with culture medium to obtain a concentration range from 1.56 to 200 µg/mL and 1.56 or 3.156 µg/mL, respectively. […] Cytotoxicity was assessed after 72 h of exposure of the cells to the compounds. […]
(§3) This method is based on staining living cells with neutral red, which readily diffuses through the plasma membrane and accumulates in lysosomes. […] After 10 min of shaking, the absorbance of the dissolved NR was measured using a Synergy 2 Multi-Mode Microplate Reader (BioTek® Instruments Inc., Winooski, VT, USA) at 540 nm using a blank as a reference. Cytotoxicity was expressed as a percentage of the negative control (0.1% DMSO in medium). […]

SH-SY5Y cells [2] = experiment: NRU assay (lysosomal activity); format: cell-based, human; conditions: 72 h
Protocol: as §1, §2, §3

HEK 293 cells [3] = experiment: TPC assay (total protein content, proliferation); format: cell-based, human
Protocol: as §1
(§4) The human neuroblastoma (SH-SY5H), hepatoma (HepG2) and kidney cells (HEK 293) cells were purchased from the American Type Culture Collection: ATCCCRL-2266,ATCC HB-8065 and ATCC CRL-1573, respectively. These cells were cultured in Minimum Essential Medium Eagle (MEME) (ATCC). The media were supplemented with 10% FBS, 1% L-glutamine (and 1% antibiotic solution (P4333 Sigma). The cells were maintained in 75 cm^2 cell culture flasks (NUNC) in a humidified incubator at 37 °C in an atmosphere of 5% CO2. The medium was refreshed every two or three days, and the cells were subcultured by 0.25% trypsin–0.02% EDTA after reaching 70–80% confluence. Single cell suspensions were prepared and adjusted to a density of 2 × 10^5 cell/mL^−1 (SH-SY5H), 1 × 10^5 cell/mL^−1 (HepG2) and 1 × 10^5 cell/mL^−1 (HEK-293). The cell suspension was transferred to 96-well plates (100 µL/well) or Lab-Tek chamber slides (8 wells) (Nunc) for staining and incubated for 24 h before the exposure to the studied compounds. Stock solutions of tiamulin fumarate and cannabidiol were prepared in DMSO and diluted with culture medium to obtain a concentration range from 1.56 to 200 µg/mL and 1.56 or 3.156 µg/mL, respectively. The selection of tiamulin concentrations was based on data from the literature and pilot studies. The final concentration of DMSO was 0.1% in the medium. The same final concentrations of the solvent and the 1% Trition-X 100 solution were used as the negative and positive controls, respectively. A total of 500 µM hydrogen peroxide (H2O2) in was used as the positive control in the DCFH assay. […] As a negative control, cultured cells were grown in the absence of studied compounds. Each concentration was tested in six replicates in three independent experiments. Cytotoxicity was assessed after 72 h of exposure of the cells to the compounds. The medium was not changed during the incubation time.
(§5) This assay is based upon staining the total cellular protein (proliferation). After the incubation, the medium containing the drug was removed, and 100 µL Coomassie brilliant blue R-250 dye was added to each well. The plate was shaken for 10 min. Then, the stain was removed and the cells were rinsed twice with 100 µL of washing solution (glacial acetic acid/ethanol/water, 5:10:85, v:v:v). After that, 100 µL of the desorbing solution (1 M potassium acetate) was added, and plates were shaken again for 10 min. The absorbance was measured at 595 nm in a Synergy 2 Multi-Mode Microplate Reader (BioTek® Instruments Inc., Winooski, VT, USA) using a blank as a reference. Cytotoxicity was expressed as a percentage of the negative control (0.1% DMSO in medium).
(§6) This study was performed in three independent experiments. The obtained results are presented as mean values ± SD (standard deviation). […]

HepG2 cells [4] = experiment: TPC assay (total protein content, proliferation); format: cell-based, human; conditions: HepG2, 72 h
Protocol: as §1, §4, §5, §6

SH-SY5Y cells [5] = experiment: TPC assay (total protein content, proliferation); format: cell-based, human; conditions: 72 h
Protocol: as §1, §4, §5, §6

HEK 293 cells [6] = experiment: BrdU assay (DNA synthesis); format: cell-based, human
Protocol: as §1, §4
(§7) Cell proliferation was evaluated by BrdU assay using a Cell Proliferation ELISA, BrdU (colorimetric) kit (Roche, Switzerland), according to manufacturer’s instructions. Briefly, BrdU was incorporated in the place of thymidine into the DNA of cells under division. This BrdU was detected by an anti-BrdU antibody conjugated with peroxidase and the reaction product of the enzyme with the given substrate was quantified by measuring its absorbance. The absorbance (A) was measured at 370 nm and 492 nm in a Synergy 2 Multi-Mode Microplate Reader (BioTek® Instruments Inc., Winooski, VT, USA), using a blank as a reference.
(§8) This study was performed in three independent experiments. The obtained results are presented as mean values ± SD (standard deviation). The assessment of the cytotoxicity data used a one-way analysis of variance (ANOVA) followed by Dunnett’s post hoc test, which was applied to determine significance relative to the negative control. […]

HepG2 cells [7] = experiment: BrdU assay (DNA synthesis); format: cell-based, human; conditions: HepG2, 72 h
Protocol: as §1, §4, §7, §8

SH-SY5Y cells [8] = experiment: BrdU assay (DNA synthesis); format: cell-based, human; conditions: 72 h
Protocol: as §1, §4, §7, §8

RAW264.7 macrophages = test system: RAW264.7 macrophages; design: method as in PMID 35956888; conditions: cited from earlier work
[9] = test system: primary porcine hepatocytes; design: method as in PMID 10682383; conditions: 250 µM (123.5 µg/mL), 24 h of exposure; cited from earlier work
[10] = Homo sapiens, read-out: inhibited concentration (IC50), TPC
[11] = Homo sapiens, read-out: inhibited concentration (IC50), BrdU

C=C[C@]1(C)C[C@@H](OC(=O)CSCCN(CC)CC)[C@]2(C)[C@H](C)CC[C@]3(CCC(=O)[C@H]32)[C@@H](C)[C@@H]1O [T, tiamulin fumarate]
tiamulin concentration that inhibited lysosomal activity (HEK 293 cells [1]; HEK-293, 72 h): 25 µg/mL | IC50 (HEK 293 cells [1]; Homo sapiens, HEK293, 72 h, read-out: inhibited concentration (IC50), NRU): 34.5 ± 1.1 µg/mL | tiamulin concentration that inhibited lysosomal activity (SH-SY5Y cells [2]; significant (p ≤ 0.05) vs negative control): 1.56 µg/mL | IC50 (SH-SY5Y cells [2]; Homo sapiens, read-out: inhibited concentration (IC50), NRU): 2.1 ± 0.4 µg/mL | tiamulin concentration that inhibited proliferation (HEK 293 cells [3]; HEK-293, 72 h): 12.5 µg/mL | IC50 (HEK 293 cells [3]; Homo sapiens, HEK293, 72 h, read-out: inhibited concentration (IC50), TPC): 8.5 ± 0.6 µg/mL | tiamulin concentration that inhibited cell proliferation (HepG2 cells [4]): 50 µg/mL | IC50 (HepG2 cells [4]; [10]): 26.7 ± 1.4 µg/mL | tiamulin concentration that decreased total protein content / inhibited proliferation (SH-SY5Y cells [5]): 25 µg/mL | IC50 (SH-SY5Y cells [5]; [10]): 169 ± 3.3 µg/mL | tiamulin concentration that inhibited DNA synthesis (HEK 293 cells [6]; HEK-293, 72 h): 12.5 µg/mL | IC50 (HEK 293 cells [6]; Homo sapiens, HEK293, 72 h, read-out: inhibited concentration (IC50), BrdU): 14.6 ± 1.3 µg/mL | tiamulin concentration that inhibited DNA synthesis (HepG2 cells [7]): 25 µg/mL | IC50 (HepG2 cells [7]; [11]): 13.9 ± 0.8 µg/mL | tiamulin concentration that inhibited DNA synthesis (SH-SY5Y cells [8]): 6.25 µg/mL | IC50 (SH-SY5Y cells [8]; [11]): 9.9 ± 1.1 µg/mL | concentrations that did not result in 50% reduction in the macrophages' viability (RAW264.7 macrophages): up to 20 μg/mL | concentrations with no significant cytotoxicity (RAW264.7 macrophages): less than 5 μg/mL | ROS production in the hepatocyte culture [9]: increased ROS production
